In US8969088B2, “Substrate mimicking intercellular lipids in stratum corneum and method of evaluating skin roughening using the same” (Shiseido Company, Ltd., priority 2008, dated 2015):

Assay: Myelin figure formation on exposing the lipids-mimicking substrate to surfactant (microscopy)
Settings: aqueous solution 5.0 mg/cm^3, 25° C., 6 hours, lipid membrane 50 μm
Protocol: Multiple substrates mimicking intercellular lipids in stratum corneum, each having a lipid membrane controlled to a thickness of 50 μm were exposed to an aqueous solution (5.0 mg/cm^3) of SDS (99.0%) (Nacalai Tesque, Inc., Kyoto, Japan) at a temperature of 25° C. for 6 hours. Each exposed substrate was rinsed with a small amount of water and dried, and used for the following evaluation test.
Upon examination of surfactants other than SDS, a myelin figure was formed with some and not formed with others. For each of the examined surfactants, the shortest distance from the edge of the substrate to the tip of the myelin figure (hereunder referred to as “myelin figure formation distance”) was measured.

CCCCCCCCCCCCOS(=O)(=O)[O-].[Na+] [SDS]
myelin figure formation: formation of a myelin figure within a constant range
